Here are results for five compounds from patent US7081473B2, “Agent for preventing/ameliorating obesity comprising methylidene hydrizide compound as active ingredient” (Sanwa Kagaku Kenkyusho Co., Ltd., priority 2002, dated 2006).

In one experiment the target is T1, human GIP receptor (Homo sapiens, UniProt P48546).
T1 construct: expressed in transfected cells; host or cells: CHO cells
T1 sequence (P48546 22-466): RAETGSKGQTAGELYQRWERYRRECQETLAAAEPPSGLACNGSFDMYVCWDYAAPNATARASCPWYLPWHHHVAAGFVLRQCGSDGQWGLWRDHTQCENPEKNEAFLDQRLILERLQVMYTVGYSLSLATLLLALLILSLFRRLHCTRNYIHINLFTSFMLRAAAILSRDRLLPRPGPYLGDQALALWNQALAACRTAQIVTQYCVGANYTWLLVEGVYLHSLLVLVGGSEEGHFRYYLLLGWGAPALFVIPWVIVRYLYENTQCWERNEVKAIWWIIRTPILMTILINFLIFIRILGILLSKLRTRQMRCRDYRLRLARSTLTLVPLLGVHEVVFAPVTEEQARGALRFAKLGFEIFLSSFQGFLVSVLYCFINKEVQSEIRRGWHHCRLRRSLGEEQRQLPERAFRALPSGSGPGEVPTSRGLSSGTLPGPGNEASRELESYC
The experiment is described as follows: Inhibition of cAMP production by GIP stimulation in human GIP receptor-expressing CHO cells. In kind it is cell-based. As to conditions: for IC50: 100 pM GIP, 37° C., 30 minutes, human GIP receptor-expressing CHO cells, read-out: IC50 (concentration of the compound at which the production of cAMP by GIP is inhibited by 50%). The source says:
The system for evaluation of GIP function inhibitors (GIP receptor antagonists and the like) made use of the following method wherein their inhibitory activity on production of cAMP as GIP intracellular transmitter was used as an indicator.
According to a method of Kubota et al. (Diabetes 45: 1701–1705, 1996), human GIP receptor-expressing cells prepared by introducing GIP cDNA into CHO cells were used. First, cAMP was produced by stimulation with 100 pM GIP in the presence/absence of the test chemical at 37° C. for 30 minutes in phosphate-buffered saline, pH 7.4, containing 1 mM isobutylmethylxanthine, 5.6 mM glucose and 0.5% bovine serum albumin. Then, using a cAMP assay system (PE Biosystems), the cells were lyzed with an attached lysis buffer, the amount of cAMP accumulated in the cells was measured, and the inhibitory activity of the test sample on the functions of GIP was determined. To verify the action of the test sample completely irrelevant to the action on GIP receptor, the inhibitory effect of the test sample on formation of cAMP upon stimulating, with 5 μM forskolin, CHO cells into which the GIP receptor gene had not been introduced (cells not expressing the GIP receptor) was also confirmed. The inhibitory activity was expressed in terms of IC50 (concentration of the compound at which the production of cAMP by GIP is inhibited by 50%). A compound not showing any inhibitory activity on formation of cAMP in the cells not expressing the GIP receptor, but inhibiting the formation of cAMP by stimulation with GIP, in the cells expressing the GIP receptor, was regarded as an active compound.

In another experiment the test system is GIP. As to conditions: disclosed in WO 01/87341; read-out: IC50 (inhibiting the functions of GIP); cited from earlier work.

With `COc1ccc(/C=N/NC(=O)c2ccc(O)c(Cl)c2)c2ccccc12` [Compound 3, 3-Chloro-4-hydroxybenzoic acid (4-methoxynaphthalen-1-yl)methylidene hydrazide], on human GIP receptor, the IC50 came to 0.56 µM.

For the compound `Cc1cc(C)c(C)c(Cn2ccc3c(/C=N/NC(=O)c4ccc(O)c(C#N)c4)cccc32)c1C` [Compound 2, 3-Cyano-4-hydroxybenzoic acid [1-(2,3,5,6-tetramethylbenzyl)indol-4-yl]methylidene hydrazide], at human GIP receptor, the IC50 was 0.0063 µM.

As for `O=C(N/N=C/c1ccc2c(ccn2Cc2ccc(Cl)s2)c1)c1ccc(O)c(Cl)c1` [Compound 4, 3-Chloro-4-hydroxybenzoic acid [1-(5-chlorothiophen-2-ylmethyl)-1H-indol-5-yl]methylidene hydrazide], on human GIP receptor, the IC50 stood at 0.44 µM.

On to `O=C(N/N=C/c1ccccc1Br)c1ccc(O)cc1` [Compound 1], for which the IC50 on human GIP receptor was 19 µM. At human GIP receptor (cells expressing the GIP receptor, result in words), the “inhibition of cAMP formation upon stimulation with GIP (functions of GIP)” value is given as “inhibited the functions of GIP though at low levels”.

Take `Cc1cc(O)n2nc(-c3ccccc3)c(Br)c2n1` [3-bromo-5-methyl-2-phenylpyrazolo[1,5-a]pyrimidin-7-ol]: the IC50 in the experiment with GIP was roughly 40 µM.
